In patent US20260062412A1, “NITROGEN-CONTAINING HETEROCYCLIC COMPOUND HAVING MYT1 INHIBITORY ACTIVITY” (CHUGAI SEIYAKU KABUSHIKI KAISHA, priority 2023, published 2026):
Where a name gives a salt, the structure may show the parent alone.

target: MYT1 protein (Homo sapiens (Human), UniProt Q99640); assay: Test for binding to ATP binding site of MYT1 (Kinase Tracer 178 / Eu-Anti-GST antibody TR-FRET); settings: ATP binding site of MYT1, 30 minutes at room temperature
Sequence (Q99640 whole entry): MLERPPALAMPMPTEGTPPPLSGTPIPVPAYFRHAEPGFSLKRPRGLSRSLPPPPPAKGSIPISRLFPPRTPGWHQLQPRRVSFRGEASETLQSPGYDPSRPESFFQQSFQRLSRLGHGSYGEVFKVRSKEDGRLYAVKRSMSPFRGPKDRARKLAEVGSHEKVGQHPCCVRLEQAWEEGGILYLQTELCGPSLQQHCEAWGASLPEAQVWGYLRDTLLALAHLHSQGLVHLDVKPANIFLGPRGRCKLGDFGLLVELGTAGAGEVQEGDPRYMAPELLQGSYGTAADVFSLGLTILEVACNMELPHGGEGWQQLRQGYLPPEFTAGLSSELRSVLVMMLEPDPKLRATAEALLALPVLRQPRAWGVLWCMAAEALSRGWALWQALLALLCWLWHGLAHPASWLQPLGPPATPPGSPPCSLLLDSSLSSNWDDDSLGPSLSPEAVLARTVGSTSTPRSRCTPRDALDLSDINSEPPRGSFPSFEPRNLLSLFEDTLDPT

Structure (SMILES)	IC50 [nM]
Nc1c(-c2ccc(F)c3[nH]ncc23)c2cc(N3CCCCC3)c3ncccc3c2[nH]c1=O [Compound C125, 3-Amino-4-(7-fluoro-1H-indazol-4-yl)-6-piperidin-1-yl-1H-1,7-phenanthrolin-2-one]	5.9
Nc1c(-c2ccc(F)c3[nH]ncc23)c2cc(N3CCC(F)(F)CC3)c3ncccc3c2[nH]c1=O [Compound C126, 3-Amino-6-(4,4-difluoropiperidin-1-yl)-4-(7-fluoro-1H-indazol-4-yl)-1H-1,7-phenanthrolin-2-one]	4.7
Nc1c(-c2ccc(F)c3[nH]ncc23)c2cc(N3CC4CC(C3)O4)c3ncccc3c2[nH]c1=O [Compound C128, 3-Amino-4-(7-fluoro-1H-indazol-4-yl)-6-(6-oxa-3-azabicyclo[3.1.1]heptan-3-yl)-1H-1,7-phenanthrolin-2-one]	5.8
Nc1c(-c2ccc(F)c3[nH]ncc23)c2cc(N3C4COCC3C4)c3ncccc3c2[nH]c1=O [Compound C129, 3-Amino-4-(7-fluoro-1H-indazol-4-yl)-6-(3-oxa-6-azabicyclo[3.1.1]heptan-6-yl)-1H-1,7-one]	3.3
Nc1c(-c2ccc(F)c3[nH]ncc23)c2cc(C3CNC3)c3ncccc3c2[nH]c1=O [Compound C132, 3-Amino-6-(azetidin-3-yl)-4-(7-fluoro-1H-indazol-4-yl)-1H-1,7-phenanthrolin-2-one; formate]	11
Nc1c(-c2ccc(F)c3[nH]ncc23)c2cc(C3CCNCC3)c3ncccc3c2[nH]c1=O [Compound C133, 3-Amino-4-(7-fluoro-1H-indazol-4-yl)-6-piperidin-4-yl-1H-1,7-phenanthrolin-2-one; hydrochloride]	1.7
CC1(c2cc3c(-c4ccc(F)c5[nH]ncc45)c(N)c(=O)[nH]c3c3cccnc23)CC1 [Compound C142, 3-Amino-4-(7-fluoro-1H-indazol-4-yl)-6-(1-methylcyclopropyl)-1H-1,7-phenanthrolin-2-one]	18
Nc1c(-c2ccc(F)c3[nH]ncc23)c2cc(C3CC3(F)F)c3ncccc3c2[nH]c1=O (stereo not shown) [Compound C145, 3-Amino-6-(2,2-difluorocyclopropyl)-4-(7-fluoro-1H-indazol-4-yl)-1H-1,7-phenanthrolin-2-one]	3.1
Nc1c(-c2ccc(Cl)c3[nH]ncc23)c2cc(C3CCC3)c3ncccc3c2[nH]c1=O [Compound C147, 3-Amino-4-(7-chloro-1H-indazol-4-yl)-6-cyclobutyl-1H-1,7-phenanthrolin-2-one]	5.2
CCc1cc2c(-c3ccc(Cl)c4[nH]ncc34)c(N)c(=O)[nH]c2c2cccnc12 [Compound C150, 3-Amino-4-(7-chloro-1H-indazol-4-yl)-6-ethyl-1H-1,7-phenanthrolin-2-one]	1.9
Nc1c(-c2ccc(Cl)c3[nH]ncc23)c2cc(C3CCCC3)c3ncccc3c2[nH]c1=O [Compound C151, 3-Amino-4-(7-chloro-1H-indazol-4-yl)-6-cyclopentyl-1H-1,7-phenanthrolin-2-one]	10
Cc1cc2c(-c3ccc(Cl)c4[nH]ncc34)c(N)c(=O)[nH]c2c2cccnc12 [Compound C152, 3-Amino-4-(7-chloro-1H-indazol-4-yl)-6-methyl-1H-1,7-phenanthrolin-2-one]	4
Nc1c(-c2c(F)ccc3[nH]ncc23)c2cc(Br)c3ncccc3c2[nH]c1=O [Compound C154, 3-Amino-6-bromo-4-(5-fluoro-1H-indazol-4-yl)-1H-1,7-phenanthrolin-2-one]	3.3
Nc1c(-c2ccc(F)c3[nH]ncc23)c2cc(C3CCC(F)(F)C3)c3ncccc3c2[nH]c1=O (stereo not shown) [Compound C162, 3-Amino-6-(3,3-difluorocyclopentyl)-4-(7-fluoro-1H-indazol-4-yl)-1H-1,7-phenanthrolin-2-one]	12
Nc1c(-c2ccc(F)c3[nH]ncc23)c2cc(C3CC(F)(F)C3)c3ncccc3c2[nH]c1=O [Compound C164, 3-Amino-6-(3,3-difluorocyclobutyl)-4-(7-fluoro-1H-indazol-4-yl)-1H-1,7-phenanthrolin-2-one]	8.6
Nc1c(-c2ccc(F)c3[nH]ncc23)c2cc(CC(F)(F)F)c3ncccc3c2[nH]c1=O [Compound C165, 3-Amino-4-(7-fluoro-1H-indazol-4-yl)-6-(2,2,2-trifluoroethyl)-1H-1,7-phenanthrolin-2-one]	7.1
CC1(C)CC(c2cc3c(-c4ccc(F)c5[nH]ncc45)c(N)c(=O)[nH]c3c3cccnc23)C1 [Compound C167, 3-Amino-6-(3,3-dimethylcyclobutyl)-4-(7-fluoro-1H-indazol-4-yl)-1H-1,7-phenanthrolin-2-one]	46
CC(c1cc2c(-c3ccc(F)c4[nH]ncc34)c(N)c(=O)[nH]c2c2cccnc12)C(F)(F)F (stereo not shown) [Compound C168, 3-Amino-4-(7-fluoro-1H-indazol-4-yl)-6-(1,1,1-trifluoropropan-2-yl)-1H-1,7-phenanthrolin-2-one]	54
Nc1c(-c2ccc(F)c3[nH]ncc23)c2cc(C3CC4(CCC4)C3)c3ncccc3c2[nH]c1=O [Compound C169, 3-Amino-4-(7-fluoro-1H-indazol-4-yl)-6-spiro[3,3]heptan-2-yl-1H-1,7-phenanthrolin-2-one]	86
Nc1c(-c2ccc(F)c3[nH]ncc23)c2cc(CC(F)F)c3ncccc3c2[nH]c1=O [Compound C170, 3-Amino-6-(2,2-difluoroethyl)-4-(7-fluoro-1H-indazol-4-yl)-1H-1,7-phenanthrolin-2-one]	3.3
CC1(C)CC2(CC(c3cc4c(-c5ccc(F)c6[nH]ncc56)c(N)c(=O)[nH]c4c4cccnc34)C2)C1 [Compound C174, 3-Amino-6-(2,2-dimethylspiro[3,3]heptan-6-yl)-4-(7-fluoro-1H-indazol-4-yl)-1H-1,7-one]	140
Nc1c(-c2ccc(F)c3[nH]ncc23)c2cc(C3CC4(CC4)C3)c3ncccc3c2[nH]c1=O [Compound C175, 3-Amino-4-(7-fluoro-1H-indazol-4-yl)-6-spiro[2.3]hexan-5-yl-1H-1,7-phenanthrolin-2-one]	16
N#CC1CC(c2cc3c(-c4ccc(F)c5[nH]ncc45)c(N)c(=O)[nH]c3c3cccnc23)C1 (stereo not shown) [Compound C176, 3-[3-Amino-4-(7-fluoro-1H-indazol-4-yl)-2-oxo-1H-1,7-phenanthrolin-6-yl]cyclobutane-1-carbonitrile]	2.1
N#CC1(Cc2cc3c(-c4ccc(F)c5[nH]ncc45)c(N)c(=O)[nH]c3c3cccnc23)CC1 [Compound C177, 1-[[3-Amino-4-(7-fluoro-1H-indazol-4-yl)-2-oxo-1H-1,7-phenanthrolin-6-yl]methyl]cyclopropane-1-carbonitrile]	2.1

Next, values leading:

IC50 [nM]	Structure (SMILES)
1.5	CS(=O)(=O)Nc1cc2c(-c3ccc(F)c4[nH]ncc34)c(N)c(=O)[nH]c2c2cccnc12 [Compound C127, N-[3-Amino-4-(7-fluoro-1H-indazol-4-yl)-2-oxo-1H-1,7-phenanthrolin-6-yl]methanesulfonamide]
3.7	Nc1c(-c2ccc(F)c3[nH]ncc23)c2cc(NS(=O)(=O)C3CC3)c3ncccc3c2[nH]c1=O [Compound C130, N-[3-amino-4-(7-fluoro-1H-indazol-4-yl)-2-oxo-1H-1,7-phenanthrolin-6-yl]cyclopropanesulfonamide]
33	Nc1c(-c2ccc(F)c3[nH]ncc23)c2cc(N3CCC(C(F)(F)F)CC3)c3ncccc3c2[nH]c1=O [Compound C131, 3-Amino-4-(7-fluoro-1H-indazol-4-yl)-6-[4-(trifluoromethyl)piperidin-1-yl]-1H-1,7-phenanthrolin-2-one]
4.1	N#Cc1cc2c(-c3ccc(Cl)c4[nH]ncc34)c(N)c(=O)[nH]c2c2cccnc12 [Compound C148, 3-Amino-4-(7-chloro-1H-indazol-4-yl)-2-oxo-1H-1,7-phenanthroline-6-carbonitrile]
380	N#Cc1cc2c(-c3ccc(C#N)c4[nH]ncc34)c(N)c(=O)[nH]c2c2cccnc12 [Compound C149, 3-Amino-4-(7-cyano-1H-indazol-4-yl)-2-oxo-1H-1,7-phenanthroline-6-carbonitrile]
4.4	Cc1cc2c(-c3ccc(C)c4[nH]ncc34)c(N)c(=O)[nH]c2c2cccnc12 [Compound C153, 3-Amino-6-methyl-4-(7-methyl-1H-indazol-4-yl)-1H-1,7-phenanthrolin-2-one]
2.3	Nc1c(-c2ccc(F)c3[nH]ncc23)c2cc(C3CCOC3)c3ncccc3c2[nH]c1=O (stereo not shown) [Compound C159, 3-Amino-4-(7-fluoro-1H-indazol-4-yl)-6-(oxolan-3-yl)-1H-1,7-phenanthrolin-2-one]
2.5	Nc1c(-c2ccc(F)c3[nH]ncc23)c2cc(CCCF)c3ncccc3c2[nH]c1=O [Compound C160, 3-Amino-4-(7-fluoro-1H-indazol-4-yl)-6-(3-fluoropropyl)-1H-1,7-phenanthrolin-2-one]
8.6	Nc1c(-c2ccc(F)c3[nH]ncc23)c2cc(CCC(F)(F)F)c3ncccc3c2[nH]c1=O [Compound C161, 3-Amino-4-(7-fluoro-1H-indazol-4-yl)-6-(3,3,3-trifluoropropyl)-1H-1,7-phenanthrolin-2-one]
24	Nc1c(-c2ccc(F)c3[nH]ncc23)c2cc(C3CCC(F)(F)CC3)c3ncccc3c2[nH]c1=O [Compound C163, 3-Amino-6-(4,4-difluorocyclohexyl)-4-(7-fluoro-1H-indazol-4-yl)-1H-1,7-phenanthrolin-2-one]
2.9	Nc1c(-c2ccc(F)c3[nH]ncc23)c2cc(C3CC4(C3)CC(F)(F)C4)c3ncccc3c2[nH]c1=O [Compound C166, 3-Amino-6-(2,2-difluorospiro[3,3]heptan-6-yl)-4-(7-fluoro-1H-indazol-4-yl)-1H-1,7-phenanthrolin-2-one]
2.2	Nc1c(-c2ccc(F)c3[nH]ncc23)c2cc(CCC(F)F)c3ncccc3c2[nH]c1=O [Compound C171, 3-Amino-6-(3,3-difluoropropyl)-4-(7-fluoro-1H-indazol-4-yl)-1H-1,7-phenanthrolin-2-one]
95	CC(C)(C)C1CC(c2cc3c(-c4ccc(F)c5[nH]ncc45)c(N)c(=O)[nH]c3c3cccnc23)C1 (stereo not shown) [Compound C173, 3-Amino-6-(3-tert-butylcyclobutyl)-4-(7-fluoro-1H-indazol-4-yl)-1H-1,7-phenanthrolin-2-one]
